Results on six molecules are retold here after US7678812B2, “Aminotetralin-derived urea modulators of vanilloid VR1 receptor” (Janssen Pharmaceutica NV, priority 2002, dated 2010).

In test [1] the test system is capsaicin-induced guinea pig bronchial ring contraction. Put plainly: Isolated guinea pig bronchial rings, capsaicin-induced contraction (organ bath). Particulars: capsaicin concentration-response shift; 105 at 1000 nM; ±SEM. Here is the method: Aminotetralin VR1 antagonists were tested for their potency to block capsaicin-induced guinea pig bronchial ring contraction in a standard in vitro organ bath assay [Tucker, 2001]. Two mm rings of bronchial tissue obtained from male guinea pigs (325 g) were suspended in normal Krebs solution between two wire hooks under an initial loading tension of 1 gram. The saline was maintained in a 5% CO2 and 95% O2 atmosphere at 37° C. in the presence of indomethacin (5 μM). A sub-maximal dose of 5-Methylfurmethide (5Mef, 1 μM) was added to each tissue to determine responsiveness using an isometric force transducer. After washout, tissues were exposed to compounds or vehicle for 30 min, treated with thiorphan (10 μM, 5% Na2CO3), and primed using KCl in increasing linear concentrations from 1 mM at 1 mM intervals until a slight increase in muscle tone was induced (˜1% of 5Mef response). […] The dose response curve was calculated as % max of the 5-Mef response and estimated pA2 were determined [Tucker, 2001]).

For test [2], the target named is T1, hVR1 receptors (Homo sapiens, UniProt Q8NER1). The test is described as follows: [3H] RTX binding assay, human VR1. Particulars: inhibition of [3H] RTX binding, membranes of HEK293 cells transfected with human VR1. Set-up: expressed in transfected cells; host or cells: HEK293 (membrane preparation). As to the method: Compounds of the present invention were tested for their ability to inhibit the binding of [^3H] RTX to hVR1 receptors in a [^3H] RTX binding assay as previously described (Zhang, Sui-Po. Improved ligand binding assays for vanilloid receptors. PCT Int. Appl. (2002), 29 pp. CODEN: PIXXD2 WO 0233411 A1 20020425 AN 2002:315209; Grant, Elfrida R.; Dubin, Adrienne E.; Zhang, Sui-Po; Zivin, Robert A.; Zhong, Zhong Simultaneous intracellular calcium and sodium flux imaging in human vanilloid receptor 1 (VR1)-transfected human embryonic kidney cells: a method to resolve ionic dependence of VR1-mediated cell death. Journal of Pharmacology and Experimental Therapeutics (2002), 300(1), 9-17.)
HEK293 cells were transfected with human VR1 vanilloid receptors and washed with Hank's Balanced Salt Solution, dissociated with cell dissociation buffer (Sigma), and then centrifuged at 1000×g for 5 min. Cell pellets were homogenized in cold 20 mM HEPES buffer, pH 7.4, containing 5.8 mM NaCl, 320 mM sucrose, 2 mM MgCl2, 0.75 CaCl2 and 5 mM KCl and centrifuged at 1000×g for 15 min. The resultant supernate was then centrifuged at 40000×g for 15 min. The pelleted membranes were kept in an −80° C. freezer.
Approximately 120 μg protein/ml from membranes were incubated with indicated concentrations of [^3H] RTX in 0.5 ml of the HEPES buffer (pH 7.4) containing 0.25 mg/mL fatty acid-free bovine serum albumin at 37° C. for 60 min. The reaction mixture was then cooled to 4° C., 0.1 mg α1-acid glycoprotein added to each sample and incubated at 4° C. for 15 min. The samples were centrifuged at 18500×g for 15 min. The tip of the microcentrifuge tube containing the pellet was cut off. Bound radioactivity was quantified by scintillation counting. Non-specific binding was tested in the presence of 200 nM unlabeled RTX.

Test [3] concerns the target T2, VR1 expressed endogenously on small rat dorsal root ganglion (DRG) neurons (Rattus norvegicus, UniProt O35433).
T2 construct: VR1 expressed endogenously on small rat dorsal root ganglion (DRG) neurons; endogenous in cells; host or cells: dissociated DRG neurons from normal rats
The test is described as follows: Electrophysiologic functional assay using dissociated rat DRG cells (whole cell patch clamp). The following applies: compound concentration 1 uM; initial response to 0.3 uM capsaicin. The format is cell-based. Here is the method: Compounds 42, 95, 101, 105 and 106 were tested for their activity on VR1 expressed endogenously on small rat dorsal root ganglion (DRG) neurons. DRG neurons from normal rats were dissociated (see methods in Chaplan et al., 2003) and whole cell currents mediated by VR1 were recorded using the whole cell patch clamp technique. […] This was followed by application of 10 μM CAP in the presence of compound. […] The ability of 1 and 10 μM CAP to cause an increased current after exposure to a compound of the invention was compared to controls.

In test [4] the test system is carrageenan paw-induced thermal hyperalgesia. Put plainly: Carrageenan paw-induced thermal hyperalgesia. The class given is in vivo, rat. Particulars: Rattus norvegicus, po. Here is the method: Each rat was placed on a heated surface (51° C.) in order to measure the time necessary to elicit a response, and an initial (baseline) response time to a thermal stimuli was recorded for each animal. A response is defined as any shaking, licking, or tucking of the treated paw or jumping. Animals not treated with a test compound respond in approximately 20 seconds. The maximal exposure time permitted is 60 seconds to prevent tissue damage. Rats were injected with an irritant (e.g., 1% carrageenan solution in 0.9% saline) subcutaneously into the sub-plantar tissue of the left hind paw to stimulate an acute inflammatory reaction.
Two hours later, the response time of the animal to the thermal stimulus was evaluated and compared to the animal's baseline response time. This shorter response time was recorded as percent hyperalgesia (% H). A cut-off value for % H (usually 75%) was used during analysis to ensure that the animals were hyperalgesic. Animals were then dosed with test drug or vehicle.
At some time(s) later (typically 45 and 90 minutes), the response time of the animal to the thermal stimulus was again evaluated. For each time point, a percent reversal of hyperalgesia (% R) was calculated using the following formula: % R=(Drug Latency−Carrageenan latency)/(Baseline latency−Carrageenan latency). ED50 values were calculated from % R obtained at several drug doses.
For orientation: The carrageenan paw model is a standard test of acute inflammation.

The target of test [5] is T3, Rat VR1 (Rattus norvegicus, UniProt O35433). Put plainly: [3H]-RTX binding assay using rat tissue (spinal cord). Set-up: Rat spinal cord was homogenized twice with a Polytron; from tissue; host or cells: rat spinal cord membranes. Particulars: rat spinal cord membranes. Here is the method:
Alternatively, a binding assay using rat tissue was used. Rat spinal cord was homogenized twice with a Polytron and centrifuged at 3000 rpm for 10 min in HEPES buffer containing 20 mM HEPES, pH 7.4, NaCl 5.8 mM, sucrose 320 mM, MgCl2 2 mM, CaCl2 0.75 mM and KCl 5 mM. The supernatant was then centrifuged at 18,000 rpm for 20 min. The pellet was saved in a tube and 10 ml assay buffer was added into the tube. The pellet and buffer were mixed with a Polytron. The assay contained 120 μg/ml membrane protein and 0.3-0.6 nM [^3H]-RTX (NEN, Boston) in a total volume of 0.5 ml HEPES buffer. Following-incubation for 60 min at 37 C, the samples were cooled down on ice, and 100 mg of α-acid glycoprotein were added into the samples. After centrifugation at 13,000 rpm for 15 min, the supernatant was aspirated and the tips of tubes were cut off and placed into 6 ml vials. Data were calculated according to the equation: % inhibition=(total binding−binding)*100/(total binding−non specific binding). Ki value values were calculated using a Prism program.

Test [6] deals with T3, Rat VR1. The test is described as follows: Broadly stimulated recombinant rat VR1 functional assay (Ca2+ influx, FLIPR). The format is cell-based. Also on record: expressed in transfected cells. An excerpt:
When nociceptors are exposed to tissue damaging stimuli, VR1 receptors are activated by a plethora of stimuli. In an effort to identify potent and efficacious antagonists at human and rat VR1 that were active under conditions simulating aspects of in vivo inflammation functional assays were developed using FLIPR to determine antagonist activity against endogenous activators and stimuli likely to be present in inflammation. Cell lines were constructed that stably expressed recombinant rat VR1 (rVR1/HEK293). Cells were exposed to various stimuli at their EC80, with the exception of the low pH and DTT stimuli.
Phoshorylation by PKC. […] Cells were challenged with 300 nM PMA (˜EC80) after 3 min in the indicated antagonist.
Anandamide. Anandamide is a brain-derived cannabinoid ligand that acts as a near full agonist at VR1 at low μM concentrations [Smart, 2000 #507].
Reactive oxygen species: Disturbances in the regulatory activities of free radicals may play a role in inflammation [Winrow, 1993]. Reactive oxygen species (ROS) such as H2O2 are formed in inflamed joints.
Reducing agents: The reducing agent DTT also directly activates VR1 [Vyklicky, 2002]. Cells were challenged with 5-10 mM DTT to stimulate VR1 after 3 min incubation in compound.
Since many of our animal models were in rat, we cloned the rat VR1 and expressed it stably in HEK293 cells.

Test [7] deals with T1, hVR1 receptors. Put plainly: Broadly stimulated recombinant human VR1 functional assay (Ca2+ influx, FLIPR). Set-up: expressed in transfected cells; host or cells: HEK293. The class given is cell-based.
Test [8] deals with capsaicin-induced cough responses. Put plainly: Capsaicin-induced cough (antitussive efficacy). The class given is in vivo, guinea pig. Particulars: codeine 25 mg/kg IP at -60 min; capsaicin aerosol 15 μM; vehicle 3.0±0.5; P<0.001. Here is the method: The antitussive activity of intraperitoneally (IP) administered compound is assessed at a single dose level against capsaicin-induced cough responses as compared to positive and vehicle controls. Thirty-six male Dunkin-Hartley guinea pigs (295-590 g, mean=425 g) are randomly allocated to one of three groups (n=12 guinea pigs per group). […] Guinea pigs are dosed IP at —60 min with vehicle (15% Solutol in 5% dextrose solution); the positive control codeine (25 mg/kg), or test compound (20 mg/kg in 15% Solutol in 5% dextrose solution). Individual guinea pigs are placed in an exposure chamber with an airflow of 3 L/min at —10 min to acclimatize. […] The mean ±SEM number of capsaicin-induced cough responses recorded in vehicle pre-treated guinea pigs was 3.0±0.5. […] ANOVA statistical analysis was used to determine the level of significance.

Where [9] appears, read: recombinant rat VR1, stimulus anandamide 10 μM, Ca2+ influx, read-out: IC50, Anandamide.
The mark [10] stands for this setting: recombinant human VR1, stimulus low pH (pH 6.5), Ca2+ influx, read-out: IC50, Low pH.

pEC50, pIC50, pKi: −log10 of the molar value. Values joined by “and” are separate entries in the source; they are usually repeats but may differ in a detail not shown here. Identical values can stand only once. Like-named read-outs stand apart in the source and are kept apart here.

T3 sequence (O35433 whole entry): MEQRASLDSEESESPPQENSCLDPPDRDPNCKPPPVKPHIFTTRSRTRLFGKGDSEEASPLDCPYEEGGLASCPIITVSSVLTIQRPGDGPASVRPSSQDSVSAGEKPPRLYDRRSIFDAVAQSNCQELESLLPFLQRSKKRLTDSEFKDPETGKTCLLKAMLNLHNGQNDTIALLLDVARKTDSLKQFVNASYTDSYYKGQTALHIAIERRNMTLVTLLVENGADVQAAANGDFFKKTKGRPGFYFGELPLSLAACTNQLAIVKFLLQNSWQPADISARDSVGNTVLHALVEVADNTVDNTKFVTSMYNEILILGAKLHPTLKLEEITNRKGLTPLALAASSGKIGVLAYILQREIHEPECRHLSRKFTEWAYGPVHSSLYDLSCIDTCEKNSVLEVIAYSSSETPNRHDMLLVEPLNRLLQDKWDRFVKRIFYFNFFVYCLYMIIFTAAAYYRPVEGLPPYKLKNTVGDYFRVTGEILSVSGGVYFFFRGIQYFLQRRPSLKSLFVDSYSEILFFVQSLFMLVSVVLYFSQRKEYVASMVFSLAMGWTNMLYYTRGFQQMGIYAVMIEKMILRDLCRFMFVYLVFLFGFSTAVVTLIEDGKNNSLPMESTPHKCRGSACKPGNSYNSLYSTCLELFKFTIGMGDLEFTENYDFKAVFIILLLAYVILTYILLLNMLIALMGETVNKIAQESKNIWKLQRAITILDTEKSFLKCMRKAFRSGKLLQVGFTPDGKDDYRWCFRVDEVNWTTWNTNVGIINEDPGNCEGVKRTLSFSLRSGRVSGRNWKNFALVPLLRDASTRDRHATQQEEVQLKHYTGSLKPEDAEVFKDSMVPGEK
T1 sequence (Q8NER1 whole entry): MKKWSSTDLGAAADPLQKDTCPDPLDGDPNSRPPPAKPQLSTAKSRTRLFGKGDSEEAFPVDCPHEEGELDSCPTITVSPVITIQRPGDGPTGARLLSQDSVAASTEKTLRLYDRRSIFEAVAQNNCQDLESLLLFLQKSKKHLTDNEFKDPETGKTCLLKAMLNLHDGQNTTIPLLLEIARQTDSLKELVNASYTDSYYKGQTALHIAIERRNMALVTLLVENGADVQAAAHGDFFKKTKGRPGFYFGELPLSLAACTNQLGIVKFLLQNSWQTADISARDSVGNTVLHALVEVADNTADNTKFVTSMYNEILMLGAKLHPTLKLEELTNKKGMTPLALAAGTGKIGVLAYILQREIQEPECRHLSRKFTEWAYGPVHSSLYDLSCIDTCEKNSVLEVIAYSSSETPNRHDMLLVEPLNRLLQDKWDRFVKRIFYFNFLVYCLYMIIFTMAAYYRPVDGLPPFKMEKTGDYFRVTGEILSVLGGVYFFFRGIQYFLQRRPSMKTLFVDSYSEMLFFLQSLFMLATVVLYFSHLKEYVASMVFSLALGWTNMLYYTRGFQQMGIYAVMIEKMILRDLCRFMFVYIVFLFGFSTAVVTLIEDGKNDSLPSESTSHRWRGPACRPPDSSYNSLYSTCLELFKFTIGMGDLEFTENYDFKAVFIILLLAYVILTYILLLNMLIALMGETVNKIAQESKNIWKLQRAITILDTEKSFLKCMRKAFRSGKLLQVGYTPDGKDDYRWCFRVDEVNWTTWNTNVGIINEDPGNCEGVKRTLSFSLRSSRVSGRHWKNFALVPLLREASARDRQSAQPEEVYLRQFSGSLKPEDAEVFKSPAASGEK
T2 sequence (O35433 whole entry): as the sequence (O35433 whole entry) above

As usually defined, the pKi is the Ki on a negative log10 scale, so that one unit is a factor of ten. Read a high pKi as a small Ki. With `O=C(Nc1cccc2cnccc12)NC1CCc2cc(F)ccc2C1Cc1ccccc1` (racemic) [Compound 38a, 1-(1-Benzyl-6-fluoro-1,2,3,4-tetrahydronaphthalene-2-yl)-3-isoquinolin-5-yl-urea], the “Estimated pA2” value in test [1] was 8.0 and 8.0±0.02. In test [2], the pKi was 8.75.

For orientation: ED50 means the midpoint of the dose-response relation. Take `O=C(Nc1cccc2c(Cl)nccc12)NC1CCc2cc(F)ccc2C1Cc1ccccc1` (single isomer, unassigned) [Compound 105]: the “% of the initial CAP response in presence of 1 uM CAP” value in test [3] is 0% and 8%. Further, the ED50 in test [4] (1.5 h, p.o., at 90 min, read-out: ED50) turned out to be 0.394 mg/kg. Also, in test [1], the “Estimated pA2” value is 6.2 and 6.2±0.11 and 6.2 +/− 0.11. The pKi is 7.97 in test [2] and 5.31 in test [5].

The pIC50 is the negative decadic logarithm of the IC50, by convention in mol/L. For the molecule `COc1ccc2c(c1)CCC(NC(=O)Nc1cccc3cnccc13)C2Cc1ccccc1` (stereo not drawn) [Compound 33, 1-(1-Benzyl-6-methoxy-1,2,3,4-tetrahydronaphthalene-2-yl)-3-isoquinolin-5-yl-urea], the ED50 in test [4] (reversal of hyperalgesia, read-out: CgHP ED50) was 0.276 mg/kg. The “Estimated pA2” value in test [1] is 8.0 +/− 0.02. Also, the “increase in intracellular Ca2+ caused by acidic solutions, anandamide, PMA at low pH and H2O2” value in test [6] (rat recombinant VR1, 3 min incubation in antagonist, dose dependent) is “completely abolished”. The pIC50 in test [6] (recombinant rat VR1, PMA at low pH, Ca2+ influx, read-out: IC50, PKC phosphorylation at low pH) is 7.33; in test [6] (recombinant rat VR1, stimulus 0.015% H2O2, Ca2+ influx, read-out: IC50, H2O2), 7.48; in test [6] (setting [9]), 7.42; in test [6] (recombinant rat VR1, stimulus low pH (pH 5.9), Ca2+ influx, read-out: IC50, Low pH), 6.77; in test [7] (recombinant human VR1, PMA at low pH, Ca2+ influx, read-out: IC50, PKC phosphorylation at low pH), 7.15; in test [7] (recombinant human VR1, stimulus 0.015% H2O2, Ca2+ influx, read-out: IC50, H2O2 reactive oxygen species), 7.41. The pIC50 in test [7] (recombinant human VR1, stimulus anandamide 10 μM, Ca2+ influx, read-out: IC50, Anandamide) is 7.39; in test [7] (setting [10]), 7.64 and 7.40. Also, the “increase in intracellular Ca2+ caused by acidic solutions, anandamide, PMA and H2O2” value in test [7] (human recombinant VR1, 3 min incubation in antagonist, dose dependent) is listed as “completely abolished”. This molecule also gave a pKi in test [2] of 8.47.

As a reminder, the pEC50 is the EC50 on a negative log10 scale, so that one unit is a factor of ten. Consider `CCCCCCCCCCCCCC(=O)O[C@@H]1[C@@H](C)[C@@]2(O)[C@@H](C=C(CO)C[C@]3(O)C(=O)C(C)=C[C@@H]23)[C@@H]2C(C)(C)[C@]12OC(C)=O` [PMA, phorbol-12-myristate-13-acetate, reference compound], for which the pEC50 is 7.05 in test [6] (rat recombinant VR1, increase in intracellular Ca2+, read-out: EC50 for PMA) and 7.05 in test [7] (human recombinant VR1, increase in intracellular Ca2+, read-out: EC50 for PMA).

Regarding `Cl.Cl.Cl.Cl.Cl.Cl.N.N.N.N.N.N.N.N.N.N.N.N.N.N.[O-2].[O-2].[Ru+3].[Ru+3].[Ru+4]` [Ruthenium Red, ruthenium red, reference compound], the pIC50 in test [6] (recombinant rat VR1, stimulus 300 nM PMA, Ca2+ influx, read-out: IC50, PKC phosphorylation) is 6.52; in test [6] (setting [9]), 5.73; in test [7] (recombinant human VR1, stimulus 300 nM PMA, Ca2+ influx, read-out: IC50, PKC phosphorylation) it was 6.30; in test [7] (setting [10]), 6.30.

`COc1ccc2c3c1O[C@H]1[C@@H](O)C=C[C@H]4[C@@H](C2)N(C)CC[C@@]341` [codeine]: the “number of capsaicin-induced cough responses (mean ±SEM)” value in test [8] is on record as 0.58±0.15 coughs.
